The record followed here is a melting point compilation (Tetko et al.; mined from patent text by program, amines drawn as free bases though some values may be those of a salt).

In general, melting point refers to the temperature, or range, at which the solid turns liquid. Compound `COC(=O)NCC1CN(c2ccc(-n3cnc(Cn4ccnc4)c3)c(F)c2)C(=O)O1` (centres undefined) registered a melting point of 78 to 80 °C. Then `COc1ccc(Cn2c(=O)[nH]c3ccc(Cl)cc3c2=O)cc1`, with 252 to 253 °C; and `Cc1c(C#N)c(=O)oc2ccc(Br)cc12`, with 187 to 192 °C. In turn, `O=S(=O)(CC(O)Cn1ccnc1)c1ccccc1` (centres undefined) yielded a melting point of 153 to 156 °C. Then `CCn1cc(C(=O)O)c(=O)c2cc3cc(F)c(N4CCNC(c5cccc(F)c5)C4)cc3nc21` (racemic), with 284 °C; and `CN(C)c1ccc(-c2ccc3c(c2)CC[C@H]2N(C)C(=O)CC[C@]32C)cc1`, with 197 to 202 °C.

`CCCCCCCCCCCCCCOc1ccc(C(C)=O)o1` gave a melting point of 70 to 72 °C. Compound `O=C(NCCCn1cnc2cnc3ccccc3c21)c1ccccc1` had a melting point of 188 to 190 °C. The result for `CCCCOc1nc(N)c2nc(Br)n(C3CCCCO3)c2n1` (centres undefined) reads 148 to 150 °C; that for `CCOC(=O)C=C(C)C=CC=C(C)C=Cc1c(C)c(CC)c(OC)c(CC)c1C`, 153 to 154 °C. The result for `O=C(N[C@H](Cc1ccc(C(F)(F)F)cc1)[C@@H](O)c1ccc(F)cc1)c1ccc(F)c2ccccc12` (racemic) reads 210 to 211 °C; that for `CCOc1c(NCCP(=O)(OCC)OCC)c(=O)c1=O`, 66 to 68 °C; that for `CCn1ncc2c1ncc1c(OCCC(C)C)nc3ncnn3c12`, 140 to 142 °C.

`CCCCc1nc2c(N)nc3ccccc3c2n1CCCCON=C(C)C`: the melting point lay in the range of 115 to 117 °C. For `CCCCCCCCCCCCCCC1C(=O)OC2OC3(C)CCC4C(C)CCC1C24OO3` (single isomer, unassigned; (+)), the melting point lay within 65 to 66 °C. Then `CC(=O)c1ccc(S(=O)(=O)N(CCO)CCO)cc1`, with 87.5 to 89.5 °C.

`COCC(=O)Nc1cc(C(N)=O)cc(NC(=O)COC)c1Cl` showed a melting point of 208 to 209 °C. The compound `Nc1c2c(nc3ccccc13)-c1ccc(Cl)cc1CC2` gave a melting point of 205 to 208 °C. The result for `COc1nc(OC)c(C=O)c(N(C)C)n1` reads 150 °C; that for `c1ccc(-c2nsc3nc4ccccc4n23)nc1`, 173 to 174 °C; that for `CS(=O)(=O)c1ccc(-n2cc(C(F)(F)F)nc2-c2ccc(-c3cscn3)cc2)cc1F`, 112 to 115 °C. The result for `CCOC(=O)CCc1ccc(OCCCc2cn(-c3ccc(C(F)(F)F)cn3)nc2OCC)c(O)c1` reads 92 to 93 °C; that for `CN1CCC(C2(O)c3ccccc3CCn3cc(-c4ccccc4)nc32)CC1` (centres undefined), 225 °C. `CCCn1ccc(-c2ccc(C(=O)N3Cc4cccn4Cc4ccccc43)cc2)n1` had a melting point of 159 to 161 °C. The result for `CC1(C(=O)Cn2cncn2)COCOC1` reads 95 to 97 °C; that for `O=[N+]([O-])c1ccc(N2CCN(c3ccncc3)CC2)cc1`, 213 to 216 °C. Then `COc1ccc2c(c1)C(C(=O)O)c1cccnc1CO2` (centres undefined), with 140 to 141 °C; and `COc1cc(C(=O)O)ccc1Cc1c(Cl)n(C)c2cc(Cl)c(CCNC(=O)N(C)C)cc12`, with 207 °C; and `COc1ccc(-c2cc(C(F)F)nn2-c2ccc(S(N)(=O)=O)cc2)cc1F`, with 159 to 161 °C. The result for `Fc1cccc(COc2ccc(Nc3ncnc4cc(C#Cc5ncccn5)sc34)cc2Cl)c1` reads 236 to 240 °C; that for `CC(=O)C(Cl)=NNc1ccc([N+](=O)[O-])cc1`, 180 to 183 °C.

As to `CN(C)Cc1ccccc1Sc1ccc(F)cc1[N+](=O)[O-]`, the melting point was in the range of 57 to 59 °C.

`CCCCCN(CCC12CC3CC(CC(C3)C1)C2)C(=O)NCc1cccnc1` showed a melting point of 88.5 to 102 °C.

Regarding `CNC(=O)N(O)C(C)C#Cc1ccc(Cl)cc1` (centres undefined), the melting point lay within 151 to 153 °C. Then `O=S(=O)(CCl)Nc1ccc(F)cc1Cl`, with 83 to 85 °C; and `COc1ccc(-c2ccccn2)c(S(=O)c2nc3cc(OC)c(OC)cc3[nH]2)c1` (centres undefined), with 208 to 210 °C. In turn, `O=S(=O)(NCCCCOc1ccc(-c2cc[nH]n2)cc1)c1ccc(Br)cc1` showed a melting point of 157 to 158 °C.

Turning to `COc1cc(NC(C)CCCN2C(=O)c3ccccc3C2=O)c2ncccc2c1N(C)C` (centres undefined), the melting point was in the range of 103 to 105 °C.

`COc1ccc(NC(=O)Nc2ccccc2)cc1NC(=S)Nc1cc(Cl)cc(Cl)c1` returned a melting point of 218 to 219 °C. Then `FC(F)(F)c1ccc(-c2ncc(C#Cc3cc4ccccc4s3)s2)cc1`, with 178 to 180 °C; and `N#CCCc1coc2ccc(Br)cc12`, with 56 to 58 °C; and `CC(=O)N1c2cscc2C(=O)N(C)c2ccccc21`, with 197 to 199 °C. The result for `CCc1nc(/C=C/c2cn(-c3ccccc3)nc2OCc2ccc(OCc3nc(-c4ccc(CC(=O)O)cc4)oc3C)c(OC)c2)c(C)s1` reads 198 to 199 °C. Then `COc1sc(-c2csc(C(N)=O)n2)c(Cl)c1C`, with 201 to 203 °C. `C=C1N=C(c2ccccc2F)c2cc(Cl)ccc2C(=O)C1N(C)C` (centres undefined) returned a melting point of 224 to 226 °C. Consider `COCCS(=O)(=O)c1ccc(F)c(C#Cc2cc(Cl)ccc2OCC(=O)O)c1`, for which the melting point lay in the range of 125 to 128 °C. The result for `COc1ccc(C2=C(C=O)c3ccc(OC)cc3CC2)cc1` reads 142 °C; that for `NP(N)(=O)OCC(Cl)(Cl)Cl`, 86 to 87 °C. In turn, `COc1cc(C2C3=C(COC3=O)N(c3cc(OC)c(OC)c(OC)c3)c3cc4c(cc32)OCO4)cc(OC)c1OC` (centres undefined) registered a melting point of over 260 °C. With `CC(C)N(Cc1ccccc1)C(=O)C(=O)N1CCN(c2ccccc2C(C)(C)C)CC1`, the melting point lay within 65 to 68 °C. Then `CCCC[C@H](NC(=O)CC[C@H](C)CNC(=O)COc1ccccc1)C(=O)CS(=O)(=O)Cc1ccco1`, with 120 to 121 °C. For `c1ccc(-c2nc3ccc(N4CCC(N5CCCC5)CC4)nn3c2-c2ccncc2)cc1`, the melting point was in the range of 165 to 166 °C.

In turn, `C=C1COc2c(F)c(F)cc3c(=O)c(C(=O)OCC)cn1c23` showed a melting point of 258 to 263 °C. The result for `CCOC(=O)c1c(C(F)F)nc(C(F)(F)F)c(C(=O)OCC)c1N` reads 29 to 30 °C; that for `CCCc1ccc2nc(C(F)(F)F)c(S(=O)(=O)N=CN(C)C)n2n1`, 219 to 220 °C; that for `COc1ccc(-c2ccc(C(=O)Nc3cc4ncc(CN5CCCC5)cc4cc3C)cc2F)cc1`, 165 to 167 °C. Then `CC(=O)NC1CCc2[nH]c3ccccc3c2C1` (centres undefined), with 170 °C.

As for `CS(=O)(=O)N(Cl)C(=O)c1cc(Oc2ccc(Cl)cc2Cl)ccc1[N+](=O)[O-]`, the melting point lay in the range of 161 to 163 °C. For `COc1cc(N)c(Cl)cc1C(=O)NC1C=NN(C)C1` (centres undefined), the melting point lay within 173 to 175 °C.

Compound `Cc1ccc2[nH]ncc2c1N` returned a melting point of 197 to 200 °C.

On to `O=C1c2c([N+](=O)[O-])cccc2S(=O)(=O)N1CCO`, for which the melting point was 140 to 141 °C.

Regarding `Cc1cc2c(cc1Br)cc1n2[C@H](C)CN(C(=O)OC(C)(C)C)C1`, the melting point was in the range of 113 to 114 °C. The result for `CS(=O)(=O)c1ccc(-c2cccn2-c2ccc3c(c2)OCO3)cc1` reads 172 to 175 °C. The result for `CS(=O)(=O)c1ccc(-c2scnc2-c2ccc(F)cc2)cc1` reads 138 to 139 °C; that for `CSc1ccc(CN(C)CCOc2ccc(NC(=O)c3cccc4c(=O)c5ccccc5[nH]c34)cc2)cc1`, 150 °C. Then `CN(O)CC1=C(n2ccccc2=O)c2cc([N+](=O)[O-])ccc2OC1(C)C`, with 159 °C; and `CSC(=S)C1(c2cccc(C)n2)SCCCS1`, with 92 °C; and `O=C(OC1CCN(Cc2ccccc2)CC1)c1cccc(I)c1`, with 101 to 103 °C. In the case of `Cc1cccc(Nc2cc(Nc3ccc(OCCN(C)C)cc3)ncn2)c1`, the melting point lay in the range of 219 to 222 °C. On to `Cc1ccc(-c2nc(-c3ccc(C(=O)NCCCBr)cc3)cs2)cc1`, for which the melting point was in the range of 175 to 177 °C. `Cc1cccc(C)c1N(Cn1cnc(Cl)c1Cl)C(=O)CCl` had a melting point of 99 °C. Then `CCOC(=O)COc1ccc(NS(C)(=O)=O)cc1C`, with 83 to 84 °C; and `Cc1cc(C2=CO[C@@](c3cc(Cl)cc(Cl)c3)(C(F)(F)F)C2)ccc1C(=O)NCC(=O)NCC(F)(F)F`, with 120 to 155 °C; and `CCN(CCSCc1[nH]cnc1C)C(=N)NC#N`, with 118 to 120 °C.

`OCCCOC(c1ccccc1)c1ccccc1` gave a melting point of 140 to 141 °C.

`Nc1ccc2c(c1)CNCCS2` came in with a melting point of 110 to 111 °C. In turn, `O=[N+]([O-])C1(CNC(CO)(CO)CO)CCCCC1` gave a melting point of 110 to 113 °C. On to `O[C@H]1c2ccc(OCc3ccccc3)cc2OC[C@H]1Oc1cccnc1` (relative stereo), for which the melting point lay in the range of 73 to 75 °C. Then `O=C(c1ccncc1)c1cnc2cc(Cl)ccc2c1Cl`, with 132 °C; and `Cc1ccc(-c2ccc(S(C)(=O)=O)cc2)n1-c1ccc(-c2ccoc2)c(Cl)c1`, with 165 to 168 °C; and `COc1ccc(C(=O)Nc2ccc(F)cc2)cc1NC(=S)Nc1cccc(C(=O)O)c1`, with 218 to 220 °C. The result for `Clc1ccc2c(c1)[nH]c1cc(Cl)ccc12` reads 188 to 189 °C; that for `CS(=O)c1ccc(C(CC2CCCC2)C(=O)Nc2nccs2)cc1` (centres undefined), 170 to 173 °C. Then `CC1(N)CN(c2cc3c(cc2F)c(=O)c(C(=O)O)cn3-c2ccc(F)cc2)C1`, with 270 to 276 °C; and `Cc1nc(NC(=O)c2ccc(S(C)(=O)=O)cc2)sc1C(=O)NCc1ccccc1`, with 262 to 265 °C; and `COc1ccc(-c2cc(F)c3c(Cl)c(O)ccc3c2)cc1`, with 120 to 124 °C.

`CCCCc1nc2cccc(C(=O)OC)c2n1Cc1ccc(-c2ccccc2CO)cc1` had a melting point of 126 to 127 °C.

On to `Cc1ccc(S(=O)(=O)N2N=C(c3ccccc3)CC3CCCC32)cc1` (centres undefined), for which the melting point was 171 to 176 °C. Then `O=C1CC[C@H](c2ccc(NC(=O)OCc3ccccc3)cc2)C1`, with 96.3 to 98.5 °C.
